Test results published in patent US20250263424A1, “KRAS INHIBITORS” (Bristol-Myers Squibb Company, priority 2022, published 2025).
Read-outs that look alike come from different tables or passages of the source.

Target: Recombinant GMPPNP-loaded KRAS G12C (KRAS-G12C(ON), active form) (Homo sapiens, UniProt P01116, G12C)
Assay: KRAS G12C RAF Disruption Assay (HTRF)
Type: biochemical
Details: GMPPNP-loaded KRAS G12C 5 nM, GST-RAF1 RBD 9 nM, read-out: KRASG12C RAF Disruption Assay (IC50)
Procedure, shortened: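 GMPPNP-loaded KRAS G12C (5 nM) preincubated with compound 20 min at room temperature in Tris pH 7.5 buffer with MgCl2, DTT and BSA. GST-RAF1 RBD (9 nM) then added for 20 min, and SA-Tb (0.25 nM) for 3 h. HTRF 520/495 ratio read; IC50 taken from the dose-response curve.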

Row | Compound | IC50 (values in nM) [nM] | IC50 (values given in μM) [nM]
1 | C#Cc1cccc2cccc(-c3ccc4c(N5CCN(C(=O)/C(F)=C/c6ccccn6)[C@@H](CC#N)C5)nc(OC[C@@]56CCCN5C[C@H](F)C6)nc4c3F)c12 [Example 85, 2-((S)-4-(7-(8-ethynylnaphthalen-1-yl)-8-fluoro-2-(((2R,7aS)-2-fluorotetrahydro-1H-pyrrolizin-7a(5H)-yl)methoxy)quinazolin-4-yl)-1-((Z)-2-fluoro-3-(pyridin-2-yl)acryloyl)piperazin-2-yl)acetonitrile] | 25 | 
2 | C#Cc1cccc2cccc(-c3ccc4c(N5CCN(C(=O)/C(F)=C/c6nccs6)[C@@H](CC#N)C5)nc(OC[C@@]56CCCN5C[C@H](F)C6)nc4c3F)c12 [Example 86, 2-((S)-4-(7-(8-ethynylnaphthalen-1-yl)-8-fluoro-2-(((2R,7aS)-2-fluorotetrahydro-1H-pyrrolizin-7a(5H)-yl)methoxy)quinazolin-4-yl)-1-((Z)-2-fluoro-3-(thiazol-2-yl)acryloyl)piperazin-2-yl)acetonitrile] | 44 | 
3 | C#Cc1cccc2cccc(-c3ccc4c(N5CCN(C(=O)/C(F)=C/c6cnccn6)[C@@H](CC#N)C5)nc(OC[C@@]56CCCN5C[C@H](F)C6)nc4c3F)c12 [Example 87, 2-((S)-4-(7-(8-ethynylnaphthalen-1-yl)-8-fluoro-2-(((2R,7aS)-2-fluorotetrahydro-1H-pyrrolizin-7a(5H)-yl)methoxy)quinazolin-4-yl)-1-((Z)-2-fluoro-3-(pyrazin-2-yl)acryloyl)piperazin-2-yl)acetonitrile] | 42 | 
4 | C#Cc1cccc2cccc(-c3ccc4c(N5CCN(C(=O)/C(F)=C/c6ccccn6)C[C@@H]5C)nc(OC[C@@]56CCCN5C[C@H](F)C6)nc4c3F)c12 [Example 88, (Z)-1-((S)-4-(7-(8-ethynylnaphthalen-1-yl)-8-fluoro-2-(((2R,7aS)-2-fluorotetrahydro-1H-pyrrolizin-7a(5H)-yl)methoxy)quinazolin-4-yl)-3-methylpiperazin-1-yl)-2-fluoro-3-(pyridin-2-yl)prop-2-en-1-one] | 43 | 
5 | C#Cc1cccc2cccc(-c3ccc4c(N5CCN(C(=O)/C(F)=C/c6nccs6)C[C@@H]5C)nc(OC[C@@]56CCCN5C[C@H](F)C6)nc4c3F)c12 [Example 89, (Z)-1-((S)-4-(7-(8-ethynylnaphthalen-1-yl)-8-fluoro-2-(((2R,7aS)-2-fluorotetrahydro-1H-pyrrolizin-7a(5H)-yl)methoxy)quinazolin-4-yl)-3-methylpiperazin-1-yl)-2-fluoro-3-(thiazol-2-yl)prop-2-en-1-one] | 380 | 
6 | (Z)-1-(3-((7M)-7-(6-amino-4-methyl-3-(trifluoromethyl)pyridin-2-yl)-6-chloro-8-fluoro-2-(((2R,7aR)-2-fluorotetrahydro-1H-pyrrolizin-7a(5H)-yl)methoxy)quinazolin-4-yl)-3,9-diazabicyclo[3.3.1]nonan-9-yl)-2-fluoro-3-(thiazol-2-yl)prop-2-en-1-one [Example 14] |  | 2100
